Experiments:
[1] = tested on: A549 tumors; assay: In vivo and ex vivo NIRF imaging of tumor targeting in A549 tumor-bearing mice; settings: i.v., same fluorescence intensity as DBCO-lipo
Description: All experiments using live animals were performed in compliance with the relevant laws and the institutional guidelines of the Korea Institute of Science and Technology (KIST) and under the approval by the institutional committee. For in vivo and ex vivo experiments, 1.0×10^7 A549 tumor cells were administered to 5-week-old male athymic nude mice (20 g, Institute of Medical Science, Tokyo, Japan) on both flanks by subcutaneous injection. […] DBCO-lipo (10 mg/kg), DBCO-free control liposome (10 mg/kg) or DBCO-fluorescent dye conjugate of the same fluorescence intensity as DBCO-lipo were injected into the tail veins of two A549 tumor-bearing mice. […] Near-infrared (NIR) fluorescence emission at 700 nm was collected and detected with a fast photomultiplier tube (Hamamatsu, Japan) and a time-correlated single photon counting system (Becker and Hickl GmbH, Berlin, Germany). The active tumor targeting characteristics of DBCO-lipo were evaluated by capturing 20 z-section images at 1.0 mm spacing using the Analysis Workstation software (ART Advanced Research Technologies Inc., Montreal, Canada). […] NIR fluorescence images were obtained using a 12-bit CCD (Kodak Image Station 4000 MM, New Haven, Conn., USA) equipped with a Cy5.5 emission filter (600-700 nm; Omega Optical). […] All numerical values were expressed as mean±standard deviation for the three animal groups. […]

[2] = tested on: A549 cells; assay: Generation of azide groups on A549 cells (Coomassie staining, western blot with phosphine-FLAG); format: cell-based, human; settings: Ac4ManNAz 0.5, 5, 50 μM, 3 days
Description: A549 cells in 10 mL of media with no sugar or different concentrations of Ac4ManNAz (final concentrations of 0.5 μM, 5 μM and 50 μM) were seeded onto 100×20 mm polystyrene tissue culture plates at a density of 1.5×10^6 cells per plate and incubated for 3 days. The cells were washed twice with PBS (pH 7.4) and harvested from the plates with a cell scraper. The cells were pelletized by centrifuging at 3,000×g for 5 minutes and the supernatant was discarded. The cell pellets were resuspended in 500 μL of lysis buffer (1% SDS, 100 mM Tris.HCl, pH 7.4) containing protease inhibitor (Complete, EDTA-free) and lysed at 4° C. using a probe-type sonicator. The sonicated lysates were incubated at 4° C. for 30 minutes to further solubilize proteins. Insoluble debris was removed by centrifuging at 3,000×g for 10 minutes. Total soluble protein concentration was determined by the bicinchroninic acid (BCA) protein assay (Pierce, Ill., USA) to be 5 mg/mL. 20 μL of the lysate (5 mg/mL protein) was incubated with 2 μL of phosphine-FLAG (5 mM in PBS, pH 7.4) (Sigma, St. Louis, Mo., USA) at 37° C. for 6 hours. SDS-PAGE loading buffer was added to each sample. Then, aliquots were loaded onto 10% SDS-PAGE after heating at 95° C. […]

[3] = tested on: A549 tumors; assay: Generation of azide groups in tumor tissues (western blot, immunohistochemical staining); format: in vivo, mice; settings: Ac4ManNAz 0.5, 5, 50 mM intratumoral once daily for 3 days; tumors dissected on day 4
Description: Preparation of tumor-bearing mouse models and administration of Ac4ManNAz were performed according to the same method as described above. 24 hours after the injection of Ac4ManNAz (on day 4), the tumors were dissected, transferred into 1 mL of lysis buffer (1% SDS, 100 mM Tris.HCl, pH 7.4) containing protease inhibitor (Complete, EDTA-free), and homogenized using a homogenizer (WiseMix HG-15D, Daihan Scientific, Seoul, Korea). The lysate was incubated at 4° C. for 30 minutes and insoluble debris was removed by centrifuging at 3,000×g for 10 minutes. Protein concentration was measured using the BCA protein assay kit. Staudinger reaction with phosphine-FLAG, SDS-PAGE and western blot analysis were conducted as described above.
The dissected tumor tissues were retrieved and fixed in a 4% (v/v) buffered formalin solution, dehydrated with graded ethanol series, and embedded in paraffin. The paraffin tissues were sliced into 4-μm wide slices and immunohistochemical staining was performed using Histostain®-Plus Brod Spectrum (Invitrogen, CA, USA) in combination with phosphine-FLAG and monoclonal anti-FLAG-HRP antibodies according to the manufacturer's instructions. The paraffin slices were dehydrated, mounted using the Permount SP15-100 Toluene Solution (Fisher Scientific, NJ, USA) mounting medium, and observed with an optical microscope (BX51, Olympus, Tokyo, Japan). […]

Row | Molecule | NIRF image brightness in mice [1] | generation of azide groups on cell surface [2] | amount of azide groups in tumor tissues [3]
1 | dibenzylcyclooctyne-SETA650 [DBCO-SETA] | relatively dim images |  | 
2 | CC(=O)OC[C@H]1OC(OC(C)=O)[C@@H](NC(=O)CN=[N+]=[N-])[C@@H](OC(C)=O)[C@@H]1OC(C)=O (stereo partly drawn) [Ac4ManNAz, Tetraacetylated N-azidoacetyl-D-mannosamine] |  | modified azide groups could be generated on the surface of the A549 cells | increased in a dose-dependent manner

From patent US9801943B2, “Method for in vivo targeting of nanoparticles via bioorthogonal copper-free click chemistry” (KOREA INSTITUTE OF SCIENCE AND TECHNOLOGY, priority 2012, dated 2017)
